Measurements published in paper PMC2959128 (Journal of the American Chemical Society, 2010).

Target: T1, phosphopantetheinyl transferase Sfp (Bacillus subtilis, UniProt P39135)
T1 sequence (P39135 1-224): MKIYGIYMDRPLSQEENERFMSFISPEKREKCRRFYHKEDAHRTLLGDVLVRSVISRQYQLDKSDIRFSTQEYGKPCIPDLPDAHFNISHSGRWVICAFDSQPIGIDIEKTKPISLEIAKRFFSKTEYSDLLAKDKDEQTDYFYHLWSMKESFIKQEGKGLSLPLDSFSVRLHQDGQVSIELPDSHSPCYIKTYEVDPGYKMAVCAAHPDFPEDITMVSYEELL
Test: acyl-phosphopantetheinyl transfer to apo-ACP
Type: biochemical
Conditions: DEBS apo-ACP6 as acceptor

Row | Structure (SMILES) | acyl-phosphopantetheinyl transfer to apo-ACP; LC-ESI(+)-MS
1 | CC[C@@H](O)[C@@H](C)C(=O)SCCNC(=O)CCNC(=O)[C@H](O)C(C)(C)COP(=O)(O)OP(=O)(O)OC[C@H]1O[C@@H](n2cnc3c(N)ncnc32)[C@H](O)[C@@H]1OP(=O)(O)O [2a-SCoA] | from DEBS apo-ACP6 using the phosphopantetheinyl transferase Sfp
2 | CC/C=C(\C)C(=O)SCCNC(=O)CCNC(=O)[C@H](O)C(C)(C)COP(=O)(O)OP(=O)(O)OC[C@H]1O[C@@H](n2cnc3c(N)ncnc32)[C@H](O)[C@@H]1OP(=O)(O)O [3-SCoA] | from DEBS apo-ACP6 using the phosphopantetheinyl transferase Sfp
